According to patent publication US12281122B1, “PI3K inhibitors” (Cogent Biosciences, Inc., priority 2023, dated 2025):

Assays:
PI3Kα H1047R = PI3Kα H1047R (Homo sapiens, UniProt P42336, H1047R); test: PI3Kα H1047R enzyme assay (Transcreener ADP2 TR-FRET Red Assay); assay type: biochemical; settings: purified recombinant full-length protein; 2 hours pre-incubation with compound
Protocol: (§1) Activity against PI3Kα and PI3Kα H1047R enzymes were determined in biochemical assays using purified recombinant full-length proteins with the Transcreener ADP^2 TR-FRET Red Assay from Bellbrook Labs. (Catalogue number 3011-10K). Test compounds were dissolved in DMSO and were tested in 11 point 1:3 serial dilutions, typical final concentration range from 50,000 nM to 0.85 nM. Enzymes were pre-incubated with compounds for 2 hours at room temperature prior to initiating the reactions. Assays were initiated with a 2×ATP/PI(4,5)P2 diC8 substrate mixture. After 60 minutes at room temperature, the reactions were quenched with detection reagent and incubated for an additional 60 minutes at room temperature. The plates were read using a multimode reader and the emission ratio of 665 nm to 615 nm was determined. This ratio was converted to percent of control (POC). [1-(high control-sample signal)/(high control-low control)]*100. Wells without compound were used to determine high control values and wells without enzyme were used to determine low control values. The POC values were fit using a four-parameter logistic model and the value where the fit curve was equal to 50 POC was reported as the IC50 using the Signals VitroVivo software package (PerkinElmer). Final assay conditions were: 40 mM HEPES pH 7.5, 20 mM NaCl, 25 mM MgCl2, 0.01% Triton X-100. The enzyme source, catalogue number, final enzyme concentration, and final ATP and PI(4,5)P2 diC8 concentration can be found in the table E10 below.

[1] = system: SKBR3 (PI3Kα-Wild Type) cell line; test: HTRF phospho-AKT(S473) cell assay in SKBR3 cells; assay type: cell-based, human; settings: Homo sapiens, SK-BR-3; SKBR3 (PI3Kα-Wild Type) cells, HTRF phospho-AKT(S473), 2 hours compound incubation, PDGF-BB stimulated
Procedure, shortened: (§2)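 HTRF read-out of phospho-AKT(S473) in lysates gave IC50 values after 2 h compound exposure at 37° C. Dose series was 12 points at 1:3, topping at 5 μM for T47D and 10 μM for SKBR3. Only SKBR3 received 70 ng/ml PDGF-BB during the last 15 minutes.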

[2] = system: T47D (PI3Kα-H1047R) cell line; test: HTRF phospho-AKT(S473) cell assay in T47D cells; assay type: cell-based, human; settings: Homo sapiens; T47D (PI3Kα-H1047R) cells, HTRF phospho-AKT(S473), 2 hours compound incubation
Procedure, shortened: as §2

PI3Kα = PI3Kα (Homo sapiens, UniProt P42336); test: PI3Kα enzyme assay (Transcreener ADP2 TR-FRET Red Assay); assay type: biochemical; settings: purified recombinant full-length protein; 2 hours pre-incubation with compound; read-out: PI3Kα WT IC50
Protocol: as §1

Sequence of PI3Kα (P42336 whole entry): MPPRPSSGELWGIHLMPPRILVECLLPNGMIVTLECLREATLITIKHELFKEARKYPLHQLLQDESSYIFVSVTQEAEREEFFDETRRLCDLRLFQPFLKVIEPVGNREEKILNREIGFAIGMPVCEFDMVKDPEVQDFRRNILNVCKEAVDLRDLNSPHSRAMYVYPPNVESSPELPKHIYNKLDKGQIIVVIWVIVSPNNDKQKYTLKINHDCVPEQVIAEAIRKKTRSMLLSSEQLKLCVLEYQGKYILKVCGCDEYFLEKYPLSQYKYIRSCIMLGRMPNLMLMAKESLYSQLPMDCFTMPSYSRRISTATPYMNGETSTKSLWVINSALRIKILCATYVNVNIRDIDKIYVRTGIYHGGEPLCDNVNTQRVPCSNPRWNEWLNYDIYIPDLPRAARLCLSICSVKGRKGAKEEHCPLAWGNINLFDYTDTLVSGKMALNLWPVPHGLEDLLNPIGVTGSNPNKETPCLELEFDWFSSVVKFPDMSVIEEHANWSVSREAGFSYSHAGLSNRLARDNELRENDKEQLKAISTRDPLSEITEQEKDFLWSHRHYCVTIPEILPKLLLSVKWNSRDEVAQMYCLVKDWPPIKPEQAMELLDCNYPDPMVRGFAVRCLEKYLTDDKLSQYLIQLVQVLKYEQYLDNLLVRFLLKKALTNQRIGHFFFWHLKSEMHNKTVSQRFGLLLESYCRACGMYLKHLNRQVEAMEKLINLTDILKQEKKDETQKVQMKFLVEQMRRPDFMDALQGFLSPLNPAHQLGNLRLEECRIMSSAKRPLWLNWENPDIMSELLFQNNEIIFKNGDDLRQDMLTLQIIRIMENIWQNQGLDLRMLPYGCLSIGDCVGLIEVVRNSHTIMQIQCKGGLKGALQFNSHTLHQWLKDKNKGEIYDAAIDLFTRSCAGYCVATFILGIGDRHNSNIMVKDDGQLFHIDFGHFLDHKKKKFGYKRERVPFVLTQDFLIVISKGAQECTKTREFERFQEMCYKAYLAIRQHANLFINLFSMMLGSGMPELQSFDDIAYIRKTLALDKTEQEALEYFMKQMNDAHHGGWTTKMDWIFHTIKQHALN
Sequence of PI3Kα (P27986 2-724 partner): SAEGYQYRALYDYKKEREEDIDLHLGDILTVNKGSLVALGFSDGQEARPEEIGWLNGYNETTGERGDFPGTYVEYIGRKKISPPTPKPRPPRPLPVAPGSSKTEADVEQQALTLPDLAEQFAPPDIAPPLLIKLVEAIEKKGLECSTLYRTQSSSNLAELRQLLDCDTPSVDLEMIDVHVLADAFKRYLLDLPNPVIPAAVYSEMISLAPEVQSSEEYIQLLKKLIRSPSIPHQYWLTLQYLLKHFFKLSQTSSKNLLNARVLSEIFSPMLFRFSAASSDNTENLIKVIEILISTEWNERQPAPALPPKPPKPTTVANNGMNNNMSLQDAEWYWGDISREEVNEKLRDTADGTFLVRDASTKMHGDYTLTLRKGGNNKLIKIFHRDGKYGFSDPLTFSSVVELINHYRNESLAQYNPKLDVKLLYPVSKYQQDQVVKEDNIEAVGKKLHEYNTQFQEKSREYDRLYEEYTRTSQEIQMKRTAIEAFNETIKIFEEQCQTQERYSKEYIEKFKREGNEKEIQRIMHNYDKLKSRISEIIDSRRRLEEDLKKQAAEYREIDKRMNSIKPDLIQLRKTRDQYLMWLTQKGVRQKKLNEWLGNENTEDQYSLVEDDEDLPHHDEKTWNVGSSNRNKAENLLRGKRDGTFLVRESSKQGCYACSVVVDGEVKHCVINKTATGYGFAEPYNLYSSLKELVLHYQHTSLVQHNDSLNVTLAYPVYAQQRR
Sequence of PI3Kα H1047R (P42336 whole entry H1047R): as the sequence (P42336 whole entry) above, with H1047R counted along it
Sequence of PI3Kα H1047R (P27986 2-724 partner): as the sequence (P27986 2-724 partner) above

How did the IC50 (PI3Kα H1047R) turn out when `Cc1cc([C@@H](C)Nc2ccc(Cl)nc2C(=O)NS(C)(=O)=O)c2nc(-c3cncc(F)c3)n(C)c(=O)c2c1` [Compound 83, (R)-6-chloro-3-((1-(2-(5-fluoropyridin-3-yl)-3,6-dimethyl-4-oxo-3,4-dihydroquinazolin-8-yl)ethyl)amino)-N-(methylsulfonyl) picolinamide] was run?
Its IC50 is at least 1000 nM.

What about the IC50 [1] of the same compound?
The IC50 was 1000 to 5000 nM.

And the IC50 [2]?
Its IC50 is 250 to 500 nM.

And the IC50 (PI3Kα)?
Its IC50 is at least 1000 nM.

With `Cc1cc([C@@H](C)Nc2ccc(Cl)nc2C(=O)NS(C)(=O)=O)c2nc(N3CCOC[C@H]3C)n(C)c(=O)c2c1` [Compound 55, 6-chloro-3-(((R)-1-(3,6-dimethyl-2-((R)-3-methylmorpholino)-4-oxo-3,4-dihydroquinazolin-8-yl)ethyl)amino)-N-(methylsulfonyl) picolinamide] as the compound, how does the IC50 (PI3Kα H1047R) read?
Its IC50 is 500 to 1000 nM.

And the IC50 [1]?
Its IC50 is 1000 to 5000 nM.

And the IC50 [2]?
The IC50 was under 250 nM.

And the IC50 (PI3Kα)?
Its IC50 is at least 1000 nM.

How did the IC50 (PI3Kα H1047R) turn out when `Cc1cc([C@@H](C)Nc2ccc(Cl)nc2C(=O)NS(C)(=O)=O)c2nc(N3CCO[C@@H](C)C3)n(C)c(=O)c2c1` [Compound 36, 6-chloro-3-(((R)-1-(3,6-dimethyl-2-((S)-2-methylmorpholino)-4-oxo-3,4-dihydroquinazolin-8-yl)ethyl)amino)-N-(methylsulfonyl) picolinamide] was run?
The IC50 was at least 1000 nM.

And the IC50 [1]?
The IC50 was 1000 to 5000 nM.

And the IC50 [2]?
The IC50 was 250 to 500 nM.

What about the IC50 (PI3Kα) of the same compound?
The IC50 was at least 1000 nM.

Which results are given for `Cc1cc2c(=O)n(C)c(N3Cc4ccc(F)cc4C3)nc2c([C@@H](C)Nc2ccc(Cl)nc2C(=O)NS(C)(=O)=O)n1` [Compound 72, (R)-6-chloro-3-((1-(2-(5-fluoroisoindolin-2-yl)-3,6-dimethyl-4-oxo-3,4-dihydro-pyrido[3,4-d]pyrimidin-8-yl)ethyl)amino)-N-(methylsulfonyl)picolinamide]?
IC50 (PI3Kα H1047R): 100 to 250 nM; IC50 [1]: 1000 to 5000 nM; IC50 [2]: 250 to 500 nM; IC50 (PI3Kα): ≥ 1000 nM

Which results are given for `C[C@@H](Nc1ccc(Cl)nc1C(=O)NS(C)(=O)=O)c1cc(F)cc2c(=O)n(C)c(N3Cc4cnn(C)c4C3)nc12` [Compound 28, (R)-6-chloro-3-((1-(6-fluoro-3-methyl-2-(1-methyl-4,6-dihydropyrrolo[3,4-c]pyrazol-5(1H)-yl)-4-oxo-3,4-dihydroquinazolin-8-yl)ethyl)amino)-N-(methylsulfonyl) picolinamide]?
IC50 (PI3Kα H1047R): 500 to 1000 nM; IC50 [1]: 1000 to 5000 nM; IC50 [2]: < 250 nM; IC50 (PI3Kα): ≥ 1000 nM

Which results are given for `Cc1cc([C@@H](C)Nc2ccc(Cl)nc2C(=O)NS(C)(=O)=O)c2nc(-c3cccc(F)c3F)n(C)c(=O)c2c1` [Compound 82, (R)-6-chloro-3-((1-(2-(2,3-difluorophenyl)-3,6-dimethyl-4-oxo-3,4-dihydroquinazolin-8-yl)ethyl)amino)-N-(methylsulfonyl)picolinamide]?
IC50 (PI3Kα H1047R): ≥ 1000 nM; IC50 [1]: 1000 to 5000 nM; IC50 [2]: 500 to 1000 nM; IC50 (PI3Kα): ≥ 1000 nM

For `Cc1cc([C@@H](C)Nc2ccc(Cl)nc2C(=O)NS(C)(=O)=O)c2nc(OCc3ccccc3)n(C)c(=O)c2c1` [Compound 50, (R)-3-((1-(2-(benzyloxy)-3,6-dimethyl-4-oxo-3,4-dihydroquinazolin-8-yl)ethyl)amino)-6-chloro-N-(methylsulfonyl) picolinamide], which IC50 (PI3Kα H1047R) is on record?
The IC50 was 250 to 500 nM.

What about the IC50 [1] of the same compound?
The IC50 was 1000 to 5000 nM.

And the IC50 [2]?
The IC50 was 1000 to 5000 nM.

What about the IC50 (PI3Kα) of the same compound?
The IC50 was at least 1000 nM.

Which IC50 (PI3Kα H1047R) does the source give for `Cc1cc([C@@H](C)Nc2ccc(Cl)nc2C(=O)NS(C)(=O)=O)c2nc(N3Cc4cnn(CC(F)(F)F)c4C3)n(C)c(=O)c2c1` [Compound 53, (R)-6-chloro-3-((1-(3,6-dimethyl-4-oxo-2-(1-(2,2,2-trifluoroethyl)-4,6-dihydropyrrolo[3,4-c]pyrazol-5(1H)-yl)-3,4-dihydroquinazolin-8-yl)ethyl)amino)-N-(methylsulfonyl) picolinamide] here?
The IC50 was 100 to 250 nM.

And the IC50 [1]?
The IC50 was 1000 to 5000 nM.

And the IC50 [2]?
Its IC50 is under 250 nM.

And the IC50 (PI3Kα)?
The IC50 was at least 1000 nM.

Which results are given for `Cc1cc([C@@H](C)Nc2ccc(Cl)nc2C(=O)NS(C)(=O)=O)c2nc(N3CCC(F)(F)C[C@H]3C)n(C)c(=O)c2c1` (single isomer, unassigned) [Compound 41, 6-chloro-3-(((R)-1-(2-((R*)-4,4-difluoro-2-methylpiperidin-1-yl)-3,6-dimethyl-4-oxo-3,4-dihydroquinazolin-8-yl)ethyl)amino)-N-(methylsulfonyl) picolinamide]?
IC50 (PI3Kα H1047R): 500 to 1000 nM; IC50 [1]: 1000 to 5000 nM; IC50 [2]: 250 to 500 nM; IC50 (PI3Kα): ≥ 1000 nM

How did the IC50 (PI3Kα H1047R) turn out when `CNC(=O)NS(=O)(=O)c1nc(Cl)ccc1N[C@H](C)c1cc(C)cc2c(=O)n(C)c(N3Cc4ccc(F)cc4C3)nc12` [Compound 70, (R)-6-chloro-3-((1-(2-(5-fluoro-isoindolin-2-yl)-3,6-dimethyl-4-oxo-3,4-dihydroquinazolin-8-yl)ethyl)amino)-N-(methylcarb-amoyl)pyridine-2-sulfonamide] was run?
The IC50 was 250 to 500 nM.

And the IC50 [1]?
The IC50 was at least 5000 nM.

What about the IC50 [2] of the same compound?
Its IC50 is 1000 to 5000 nM.

What about the IC50 (PI3Kα) of the same compound?
Its IC50 is at least 1000 nM.

Which IC50 (PI3Kα H1047R) does the source give for `Cc1cc([C@@H](C)Nc2ccc(Cl)[nH]c2=O)c2nc(N3Cc4ccc(F)cc4C3)n(C)c(=O)c2c1` [Compound 93, (R)-8-(1-((6-chloro-2-oxo-1,2-dihydropyridin-3-yl)amino)ethyl)-2-(5-fluoroisoindolin-2-yl)-3,6-dimethylquinazolin-4(3H)-one] here?
The IC50 was at least 1000 nM.

What about the IC50 [1] of the same compound?
The IC50 was at least 5000 nM.

What about the IC50 [2] of the same compound?
Its IC50 is under 250 nM.

And the IC50 (PI3Kα)?
The IC50 was at least 1000 nM.

How did the IC50 (PI3Kα H1047R) turn out when `Cc1cc([C@@H](C)Nc2ccc(Cl)cc2C(=O)NS(C)(=O)=O)c2nc(N3Cc4ccc(F)cc4C3)n(C)c(=O)c2c1` [Compound 64, (R)-5-chloro-2-((1-(2-(5-fluoro-isoindolin-2-yl)-3,6-dimethyl-4-oxo-3,4-dihydroquinazolin-8-yl)ethyl)amino)-N-(methylsulfonyl) benzamide] was run?
The IC50 was at least 1000 nM.

And the IC50 [1]?
The IC50 was 1000 to 5000 nM.

What about the IC50 [2] of the same compound?
Its IC50 is 1000 to 5000 nM.

What about the IC50 (PI3Kα) of the same compound?
The IC50 was at least 1000 nM.

For `C[C@@H](Nc1ccc(Cl)nc1C(=O)NS(C)(=O)=O)c1cc(F)cc2c(=O)n(C)c(N3Cc4cccnc4C3)nc12` [Compound 32, (R)-6-chloro-3-((1-(2-(5,7-dihydro-6H-pyrrolo[3,4-b]pyridin-6-yl)-6-fluoro-3-methyl-4-oxo-3,4-dihydroquinazolin-8-yl)ethyl)amino)-N-(methylsulfonyl) picolinamide], which IC50 (PI3Kα H1047R) is on record?
Its IC50 is 250 to 500 nM.

And the IC50 [1]?
The IC50 was 1000 to 5000 nM.

What about the IC50 [2] of the same compound?
The IC50 was 250 to 500 nM.

What about the IC50 (PI3Kα) of the same compound?
The IC50 was 500 to 1000 nM.

Which IC50 (PI3Kα H1047R) does the source give for `Cc1cc([C@@H](C)Nc2ccc(Cl)nc2C(=O)NS(C)(=O)=O)c2nc(N3Cc4cnn(C(C)C)c4C3)n(C)c(=O)c2c1` [Compound 49, (R)-6-chloro-3-((1-(2-(1-isopropyl-4,6-dihydropyrrolo[3,4-c]pyrazol-5(1H)-yl)-3,6-dimethyl-4-oxo-3,4-dihydroquinazolin-8-yl)ethyl)amino)-N-(methylsulfonyl) picolinamide] here?
Its IC50 is 100 to 250 nM.

And the IC50 [1]?
The IC50 was 1000 to 5000 nM.

What about the IC50 [2] of the same compound?
Its IC50 is under 250 nM.

What about the IC50 (PI3Kα) of the same compound?
The IC50 was at least 1000 nM.

Which results are given for `Cc1cc([C@@H](C)Nc2ccc(Cl)nc2C(=O)NS(C)(=O)=O)c2nc(OCC3CC3)n(C)c(=O)c2c1` [Compound 51, (R)-6-chloro-3-((1-(2-(cyclopropylmethoxy)-3,6-dimethyl-4-oxo-3,4-dihydroquinazolin-8-yl)ethyl)amino)-N-(methylsulfonyl) picolinamide]?
IC50 (PI3Kα H1047R): < 100 nM; IC50 [1]: 500 to 1000 nM; IC50 [2]: < 250 nM; IC50 (PI3Kα): ≥ 1000 nM

How did the IC50 (PI3Kα H1047R) turn out when `C[C@@H](Nc1cccnc1C(=O)NS(C)(=O)=O)c1cccc2c(=O)n(C)c(N3Cc4ccc(F)cc4C3)nc12` [Compound 59, (R)-3-((1-(2-(5-fluoroisoindolin-2-yl)-3-methyl-4-oxo-3,4-dihydroquinazolin-8-yl)ethyl)amino)-N-(methylsulfonyl) picolinamide] was run?
Its IC50 is at least 1000 nM.

What about the IC50 [1] of the same compound?
Its IC50 is at least 5000 nM.

What about the IC50 [2] of the same compound?
The IC50 was 1000 to 5000 nM.

And the IC50 (PI3Kα)?
The IC50 was at least 1000 nM.

Which IC50 (PI3Kα H1047R) does the source give for `Cc1cc([C@@H](C)Nc2ccc(Cl)nc2C(=O)NS(C)(=O)=O)c2nc(-c3cccnc3C)n(C)c(=O)c2c1` [Compound 85, (R)-6-chloro-3-((1-(3,6-dimethyl-2-(2-methylpyridin-3-yl)-4-oxo-3,4-dihydroquinazolin-8-yl)ethyl)amino)-N-(methylsulfonyl) picolinamide] here?
Its IC50 is at least 1000 nM.

And the IC50 [1]?
The IC50 was at least 5000 nM.

What about the IC50 [2] of the same compound?
Its IC50 is 1000 to 5000 nM.

And the IC50 (PI3Kα)?
The IC50 was at least 1000 nM.

Which results are given for `CNS(=O)(=O)NC(=O)c1nc(Cl)ccc1N[C@H](C)c1cc(C)cc2c(=O)n(C)c(N3Cc4ccc(F)cc4C3)nc12` [Compound 73, (R)-6-chloro-3-((1-(2-(5-fluoroisoindolin-2-yl)-3,6-dimethyl-4-oxo-3,4-dihydroquinazolin-8-yl)ethyl)amino)-N-(N-methyl-sulfamoyl)picolinamide]?
IC50 (PI3Kα H1047R): 250 to 500 nM; IC50 [1]: 1000 to 5000 nM; IC50 [2]: < 250 nM; IC50 (PI3Kα): ≥ 1000 nM
